Key:
[1] = system: Rat Liver ER Neutral α-Glucosidase; assay: Endoplasmic reticulum α-glucosidase activity assay; assay type: biochemical
How it was run: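 Enzyme source: rough ER-enriched microsomes from livers of fasted male Sprague-Dawley rats, pre-incubated with compound 10 min at 37 °C in 67 mM PBS pH 6.8. p-Nitrophenyl-α-D-glucopyranoside added at 1 mM final; absorbance at 405 nm followed for 42 min.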

SR = system: SR; set-up: method as in PMID 25405285; settings: standard drugs used by NCI as control; cited from earlier work
HOP-62 = system: HOP-62; set-up: method as in PMID 25405285; settings: standard drugs used by NCI as control; cited from earlier work
NCI-H226 = system: NCI-H226; set-up: method as in PMID 25405285; settings: standard drugs used by NCI as control; cited from earlier work
NCI-H460 = system: NCI-H460; set-up: method as in PMID 25405285; settings: standard drugs used by NCI as control; cited from earlier work
KM12 = system: KM12; set-up: method as in PMID 25405285; settings: standard drugs used by NCI as control; cited from earlier work
SF-268 = system: SF-268; set-up: method as in PMID 25405285; settings: standard drugs used by NCI as control; cited from earlier work
SNB-19 = system: SNB-19; set-up: method as in PMID 25405285; settings: standard drugs used by NCI as control; cited from earlier work
SNB-75 = system: SNB-75; set-up: method as in PMID 25405285; settings: standard drugs used by NCI as control; cited from earlier work
U251 = system: U251; set-up: method as in PMID 25405285; settings: standard drugs used by NCI as control; cited from earlier work
M14 = system: M14; set-up: method as in PMID 25405285; settings: standard drugs used by NCI as control; cited from earlier work
OVCAR-3 = system: OVCAR-3; set-up: method as in PMID 25405285; settings: standard drugs used by NCI as control; cited from earlier work
OVCAR-8 = system: OVCAR-8; set-up: method as in PMID 25405285; settings: standard drugs used by NCI as control; cited from earlier work
NCI/ADR-RES = system: NCI/ADR-RES; set-up: method as in PMID 25405285; settings: standard drugs used by NCI as control; cited from earlier work
SK-OV-3 = system: SK-OV-3; set-up: method as in PMID 25405285; settings: standard drugs used by NCI as control; cited from earlier work
A498 = system: A498; set-up: method as in PMID 25405285; settings: standard drugs used by NCI as control; cited from earlier work
CAKI-1 = system: CAKI-1; set-up: method as in PMID 25405285; settings: standard drugs used by NCI as control; cited from earlier work
RXF 393 = system: RXF 393; set-up: method as in PMID 25405285; settings: standard drugs used by NCI as control; cited from earlier work
UO-31 = system: UO-31; set-up: method as in PMID 25405285; settings: standard drugs used by NCI as control; cited from earlier work
MDA-MB-231/ATCC = system: MDA-MB-231/ATCC; set-up: method as in PMID 25405285; settings: MDA-MB-31/ATCC; standard drugs used by NCI as control; cited from earlier work
HL-60(TB) = settings: standard drugs used by NCI as control; cited from earlier work

SMILES: C=C(C)[C@@H]1CC[C@]2(C(=O)NCCNCCNCCN)CC[C@]3(C)[C@H](CC[C@@H]4[C@@]5(C)CCC(=O)C(C)(C)[C@@H]5CC[C@]43C)[C@@H]12 [Compound 11]
- Rat Liver ER Neutral α-Glucosidase Inhibition, m ± SD ([1]; 10 μM): 15.03 ± 8.98%
- Rat Liver ER Neutral α-Glucosidase Inhibition, m ± SD ([1]; 100 μM): 43.60 ± 7.98 %

SMILES: COc1cccc2c1C(=O)c1c(O)c3c(c(O)c1C2=O)C[C@@](O)(C(=O)CO)C[C@@H]3O[C@H]1C[C@H](N)[C@H](O)[C@H](C)O1 [DRB, doxorubicin]
- GI50 (SR): 30 nM
- GI50 (HOP-62): 70 nM
- GI50 (NCI-H226): 50 nM
- GI50 (NCI-H460): 20 nM
- GI50 (KM12): 270 nM
- GI50 (SF-268): 100 nM
- GI50 (SNB-19): 40 nM
- GI50 (SNB-75): 70 nM
- GI50 (U251): 40 nM
- GI50 (M14): 180 nM
- GI50 (OVCAR-3): 390 nM
- GI50 (OVCAR-8): 100 nM
- GI50 (NCI/ADR-RES): 7160 nM
- GI50 (SK-OV-3): 220 nM
- GI50 (A498): 100 nM
- GI50 (CAKI-1): 950 nM
- GI50 (RXF 393): 100 nM
- GI50 (UO-31): 490 nM
- GI50 (MDA-MB-231/ATCC): 510 nM
- GI50 (HL-60(TB)): 190 nM

From publication PMC7587962, “Evaluation of Cytotoxicity and α-Glucosidase Inhibitory Activity of Amide and Polyamino-Derivatives of Lupane Triterpenoids” (Molecules, 2020)
